Tests used:
[1] = tested on: normal mice; assay: 3 chamber test in normal mice; assay type: in vivo; conditions: 5 mg/kg, sociability measurement-2 session, FIG. 14b
Method: 3-chamber test is a test to confirm sociability, social cognition, and social sexual preference, and it was tested by composing sessions 1 and 2. The experimental site was consisted of three chambers made of transparent acrylic walls with a small door and each chamber was length 50 cm×width 100 cm×height 50 cm. Through a cylindrical cage, the sense of smell and minimal contact of the test mice to the unfamiliar mouse were allowed. Prior to the test, the test mice were placed in an intermediate chamber and adapted for 5 minutes with both doors closed. The test was performed by dividing into sessions I and II. In the 3-chamber sociability measurement-1 session, an unfamiliar mouse met first was placed in a transparent box located at one end of the three rooms, and an empty transparent box of the same size was placed in the room located at the other side, and the target mouse was placed in the middle room, and then the time searching toward the counterpart within the social interaction zone was measured.
In order to verify this possibility, the efficacy of athyriol on memory ability and sociability of normal animals was investigated. […]

[2] = tested on: mTORC2 signaling pathway; assay: Immunoblot analysis of mTORC2 signaling pathway in A549 cells; assay type: cell-based, human
Method: In order to investigate the effect on the mTORC2 signaling pathway of norathyriol in a culture cell model, after treating norathyriol to a human cell line A549, Akt Ser473 phosphorylation, Akt Thr308 phosphorylation, and NDRG1 Thr346 phosphorylation were measured by immunoblot analysis over time. The A549 cells were cultured in RPMI culture medium in which 10% heat inactivated FBS and 1× GlutaMax were added. After seeding the A549 cells of 2×10^5 in a 60 mm culture dish and culturing them for 1 day, norathyriol was treated to the cells. The cells were washed with ice-cold 1× PBS twice, and then the cells were […] using RIPA buffer (50 mM Tris-HCl (pH7.4), 150 mM NaCl, 0.25% sodium deoxycholate, 1% NP-40, 1% SDS, 1 mM EDTA, 1 mM EGTA, 1 mM sodium β-glycerophosphate, 1 mM PMSF, 1 μg/ml leupeptin, 1 μg/ml pepstatin A, 10 nM aprotinin, 1 mM Na3VO4, 50 mM NaF, 10 nM calyculin A) on ice. After removing undissolved substances by centrifuging at 4° C. at 15,000× g for 15 minutes, the supernatant was recovered to determine the protein concentration with BCA protein assay kit (Thermo Fisher Scientific). 2× SDS-PAGE sample buffer in the same volume was added to the supernatant and boiled for 5 minutes, and then it was developed under a reducing condition by SDS-polyacrylamide gel electrophoresis. The developed protein was transferred into a PVDF membrane by an electro blotting method. The membrane was blocked in TBST containing 5% skim milk (100 mM Tris-Cl, pH 8.8, 150 mM NaCl, 0.1% Tween-20) at a room temperature for 1 hour, and then it was reacted with a primary antibody. After washing with TBST for 10 minutes 3 times, it was reacted with a secondary antibody conjugated with HRP. After washing with TBST for 10 minutes 3 times, it was reacted with an enhanced chemiluminescence (ECL) reagent to obtain an image of the protein combined with the secondary antibody. For the immunoblot analysis, AKT antibody (#4691, Cell Signaling), phospho-Ser473 AKT antibody (#4060, Cell Signaling), phospho-Thr308 AKT antibody (#2965, Cell Signaling), p70 S6 kinase antibody (#9202, Cell Signaling), and phospho-Thr389 p70 S6 kinase antibody (#9205, Cell Signaling) were used.
mTORC2 activates SGK1, and SGK1 phosphorylates NDRG1 Thr346. NDRG1 phosphorylated at Thr346 is removed by a ubiquitination-proteasome system. Accordingly, when the mTORC2 activity is inhibited, NDRG1 Thr346 phosphorylation is reduced, whereas NDRG1 protein increases.

[3] = tested on: mTORC2 signaling (Fox03a location); assay: Fox03a intracellular location by immunofluorescent staining in A549; assay type: cell-based, human; conditions: A549 cells, treated for 3 hours; FIG. 7c
Source text: mTORC2 activates SGK3, and SGK3 phosphorylates Fox03a, allowing Fox03a to remain in the cytoplasm. When mTORC2 is inhibited, Fox03a is dephosphorylated and translocated to the nucleus, and in the nucleus, it binds to FHRE located in a gene promoter to induce gene expression. Therefore, the change in the intracellular location of Fox03a and FHRE dependent gene expression become indicators for evaluating mTORC2 activity. In order to evaluate the effect of norathyriol on the mTORC2 activity, norathyriol was treated to A549, and then the change in the intracellular location of Fox03a was investigated by immunofluorescent staining.
Specifically, the A549 cells of 1×10^5 were seeded in a confocal dish coated with 35 mm collagen and cultured for 1 day. After treating norathyriol, the cells were fixed with 4% paraformaldehyde at 4° C. for 15 minutes. After treating PBS containing 0.5% Triton X-100 (PBS-T) at a room temperature for 5 minutes for permeabilization, PBS containing 5% normal goat serum and 1% gelatin was treated at a room temperature for 30 minutes for blocking. The Fox03a antibody diluted in 1% BSA was treated at a room temperature for 1 hour. After washing the culture dish with PBS-T, an FITC conjugated anti-rabbit secondary antibody diluted in 1% BSA was treated at a room temperature for 50 minutes. […]

[4] = tested on: mTORC2 signaling (FHRE dependent gene expression); assay: FHRE-luciferase reporter analysis in A549; assay type: cell-based, human; conditions: A549 cells, treated for 24 hours; FIG. 7d
Source text: mTORC2 activates SGK3, and SGK3 phosphorylates Fox03a, allowing Fox03a to remain in the cytoplasm. When mTORC2 is inhibited, Fox03a is dephosphorylated and translocated to the nucleus, and in the nucleus, it binds to FHRE located in a gene promoter to induce gene expression. Therefore, the change in the intracellular location of Fox03a and FHRE dependent gene expression become indicators for evaluating mTORC2 activity. In order to evaluate the effect of norathyriol on the mTORC2 activity, norathyriol was treated to A549, and then expression of an FHRE-synthetic luciferase gene was investigated by luciferase reporter analysis.
Specifically, A549 cells of 2×10^5 were seeded in a 35 mm culture dish and cultured for 1 day, and then a 2.5 μg FHRE-Luc plasmid and a 0.1 μg renilla luciferase plasmid were introduced by a transfection method using Lipofectamine LTX reagent (Thermofisher). After 18 hours, norathyriol was treated for 24 hours. Luciferase assay was performed with Dual Luciferase Reporter Assay System (Promega) according to the manufacturer's instructions.

expression of the FHRE-synthetic luciferase gene [4]	Compound	increase in ratio of searching time for familiar mice to searching time for unfamiliar mice compared to vehicle control [1] [%]	Akt Ser473 phosphorylation (mTORC2 activity indicator) ([2]; FIG. 7a)	Akt Thr308 phosphorylation (PDK1 activity indicator) ([2]; FIG. 7a)	NDRG1 protein ([2]; FIG. 7b)	ratio of NDRG1 Thr346 phosphorylation to NDRG1 protein ([2]; FIG. 7b)	intracellular location of Fox03a [3]
–	COc1cc(O)c2c(=O)c3cc(O)c(O)cc3oc2c1 [athyriol, 1,6,7-Trihydroxy-3-methoxy-9H-xanthen-9-on]	11	–	–	–	–	–
increased by twice or more	O=c1c2cc(O)c(O)cc2oc2cc(O)cc(O)c12 [norathyriol, 1,3,6,7-tetrahydroxy-9H-xanthen-9-one]	–	reduced	not reduced and rather increased after 24 hours	increased significantly	reduced	moved to the nucleus

Reference: patent publication US20240366555A1, “SELECTIVE MTORC2 INHIBITOR AND USES THEREOF” (ALIAD BIOPHARMA, priority 2021, published 2024)
